Reference: PubChem BioAssay AID1552 (Sanford-Burnham Center for Chemical Genomics, 2009)
The source made the active and inactive calls. No rule for the calls is given here.

What follows are compounds tested against Ubiquitin-conjugating enzyme E2 N (Homo sapiens) (UniProt P61088) (assay: NMR detection of UBE2N ligand binding – biophysical, purified protein (AID 1552)). Details: NMR binding to purified UBE2N.
Sequence of Ubiquitin-conjugating enzyme E2 N (Homo sapiens) (P61088 whole entry, looked up): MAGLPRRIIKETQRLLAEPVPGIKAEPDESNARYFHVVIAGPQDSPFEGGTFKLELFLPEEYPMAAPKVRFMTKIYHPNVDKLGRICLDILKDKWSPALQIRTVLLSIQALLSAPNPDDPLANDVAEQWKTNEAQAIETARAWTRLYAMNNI

Structure (SMILES) | Kd
CC1(C)CC(NC(=O)/C=C/C(=O)O)CC(C)(C)N1 | > 4 mM (inactive)
CC(C)=CCC[C@](C)(O)C1CC=C(C)CC1 (some centres undefined) | > 4 mM (inactive)
COC(=O)c1ccc(N2CCOCC2)nc1 | > 4 mM (inactive)
COc1c(O)cc2c(c1O)[C@H]1O[C@H](CO)[C@@H](O)[C@H](O)[C@@H]1OC2=O | > 4 mM (inactive)
O=C(O)CSCc1ccc(Cl)cc1 | > 4 mM (inactive)
Cc1oc(-c2ccccc2)cc1CO | > 4 mM (inactive)
OCc1ccc2nsnc2c1 | > 4 mM (inactive)
CNS(=O)(=O)c1cc(OC)ccc1OC | > 4 mM (inactive)
COc1ccc(Cl)cc1NC(=O)c1ccco1 | > 4 mM (inactive)
CC(=O)Nc1ccc(NC(=O)N2CCOCC2)cc1 | > 4 mM (inactive)
O=CN1CCN(C(=O)c2ccccc2F)CC1 | > 4 mM (inactive)
CN(C)c1nc(N)nc(Cn2ccnc2)n1 | > 4 mM (inactive)
Cc1ncc(C(=O)O)c(-c2ccccc2)n1 | > 4 mM (inactive)
COc1ccccc1NC(=O)c1cc[n+]([O-])cc1 | > 4 mM (inactive)
COCC(=O)N1CCCc2ccccc21 | > 4 mM (inactive)
O=C(NCc1cccs1)c1ccncc1 | > 4 mM (inactive)
CC1=CC(=O)C2C(C)(C)CCC[C@]2(C)[C@@]1(O)CCc1ccoc1 (some centres undefined) | > 4 mM (inactive)
Cc1oc(S(=O)(=O)N2CCCCC2)cc1C(=O)O | > 4 mM (inactive)
CC1(C)CC2C1CC[C@]1(C)CCC3C(C(=O)O)CC(=O)O[C@@]32C1 (some centres undefined) | > 4 mM (inactive)
NC(=O)CSc1nnc2ccc(-c3ccccn3)nn12 | > 4 mM (inactive)

Structure (SMILES) | Kd
OCc1ccc(-c2ccccn2)s1 | > 4 mM (inactive)
O=C1CSC(=Nc2ccc(Cl)cc2)N1 | > 4 mM (inactive)
O=C(Nc1cccc(C(F)(F)F)c1)c1cccnc1 | > 4 mM (inactive)
CCN(CC)S(=O)(=O)c1ccc(F)cc1 | > 4 mM (inactive)
CSc1nc(NC(C)C)nc(N2CCOCC2)n1 | > 4 mM (inactive)
O=C(CSc1nnc2ccccn12)N1CCOCC1 | > 4 mM (inactive)
Cn1nc(C(=O)Nc2cccnc2)cc1Cl | > 4 mM (inactive)
CCCn1cnn2c(=O)cc(C)nc12 | > 4 mM (inactive)
Cc1cc2ncc(C(=O)Nc3ccccc3)c(C)n2n1 | > 4 mM (inactive)
CN1CCN(C(=O)/C=C\C(=O)O)CC1 | > 4 mM (inactive)
CC(=O)NCC1OCCc2ccccc21 (centres undefined) | > 4 mM (inactive)
CC(C)(CO)NC(=O)c1ccccc1F | > 4 mM (inactive)
Nc1ccc(Cl)nn1 | > 4 mM (inactive)
O=c1[nH]c2ccc(S(=O)(=O)NC3CC3)cc2[nH]1 | > 4 mM (inactive)
Nc1cc(=O)[nH]c(=O)n1-c1ccccc1 | > 4 mM (inactive)
COc1ccc(S(N)(=O)=O)cc1 | > 4 mM (inactive)
CCC(C)C(=O)OC1[C@@H]2CC3=C4CC(=O)O[C@@H](c5ccoc5)[C@]4(C)CCC3C(C)(C2=O)[C@@H](CC(=O)OC)C1(C)C (some centres undefined) | > 4 mM (inactive)
Nc1nc(SCc2ccc3c(c2)OCCO3)n[nH]1 | > 4 mM (inactive)
Clc1ccc(-c2noc(CN3CCCC3)n2)cc1 | > 4 mM (inactive)
CCn1c(C)c(C(C)=O)c(N2CCOCC2)nc1=S | > 4 mM (inactive)

Structure (SMILES) | Kd
Cc1cc(F)c(F)c(C(=O)NC2CC2)c1Cl | > 4 mM (inactive)
Cc1ccc(/C=C2/NC(=S)NC2=O)s1 | > 4 mM (inactive)
NS(=O)(=O)c1ccc(NC(=O)c2cccs2)cc1 | > 4 mM (inactive)
Cn1ccc(NC(=S)Nc2cccc([N+](=O)[O-])c2)n1 | > 4 mM (inactive)
O=c1[nH]cc(S(=O)(=O)Nc2ccccc2)c(=O)[nH]1 | > 4 mM (inactive)
CC(=O)O[C@@H]1CC2C(C)(CC[C@H](O)C2(C)C)C2CC[C@]3(C)C(=CC(=O)O[C@H]3c3ccoc3)C21C (some centres undefined) | > 4 mM (inactive)
O=C(NCC1CCCCC1)c1ccco1 | > 4 mM (inactive)
C=CCNC(=O)c1ccc(Cl)cc1Cl | > 4 mM (inactive)
COC(=O)C1[C@H]2C[C@H]3c4[nH]c5ccccc5c4CCN3C[C@@H]2CC[C@@H]1O (some centres undefined) | > 4 mM (inactive)
O=C(O)C(Cc1cnc[nH]1)N1C(=O)c2ccccc2C1=O (centres undefined) | > 4 mM (inactive)
C[C@@H]1CCC2[C@](C)(CO)[C@@H](O)CC[C@]2(C)[C@@]12CC[C@@](CO)(CCO)O2 (some centres undefined) | > 4 mM (inactive)
CC1=NN2C(=N)CC(=O)N=C2S1 | > 4 mM (inactive)
CC(=O)Nc1ccncc1NC(C)=O | > 4 mM (inactive)
COc1cc2c(cc1OC)C(=O)OC2 | > 4 mM (inactive)
Cc1cc(=O)n2[nH]cnc2n1 | > 4 mM (inactive)
C=C1C2CC[C@H]3[C@]4(C)C[C@H](OC5OC(CO)C(OS(=O)(=O)O)C(OS(=O)(=O)O)C5OC(=O)CC(C)C)C[C@@H](C(=O)O)[C@H]4CC[C@]3(C2)[C@H]1O (some centres undefined) | > 4 mM (inactive)
CC1CCC2(OC1)OC1CC3C4CC[C@H]5C[C@@H](O)CC[C@]5(C)C4CC(=O)[C@]3(C)C1C2C (some centres undefined) | > 4 mM (inactive)
O=c1cnnc(N2CCCCC2)[nH]1 | > 4 mM (inactive)
O=C(NCc1cccc(Cl)c1)c1cnccn1 | > 4 mM (inactive)
